Reference: PMC3361267 (Journal of Medicinal Chemistry, 2012)
Entries after “also recorded” stand apart in the source; their conditions may differ. Where two headings read alike, the source gives them in different places. *1 amine or outer side, *2 acyl side, *3 side chain or, on linkers, in order; H or OH if unused. Where a SMILES comes first, the peptide text is derived from it. Bridges are numbered along the chain shown (N, C = ends). [ ]: non-standard residue; d: D form. X1 = O=C([C@@H](N[*:1])c1c([*:3])[nH]c2ccccc12)[*:2]; Leu(4R-OH,5-OH) = C[C@](O)(CO)C[C@H](N)C(=O)O; cisHyp = O=C(O)[C@@H]1C[C@H](O)CN1

Experiments:
[1] = molecular target: T1, OATP1B1 (Homo sapiens, UniProt Q9Y6L6)
T1 sequence (Q9Y6L6 1-691): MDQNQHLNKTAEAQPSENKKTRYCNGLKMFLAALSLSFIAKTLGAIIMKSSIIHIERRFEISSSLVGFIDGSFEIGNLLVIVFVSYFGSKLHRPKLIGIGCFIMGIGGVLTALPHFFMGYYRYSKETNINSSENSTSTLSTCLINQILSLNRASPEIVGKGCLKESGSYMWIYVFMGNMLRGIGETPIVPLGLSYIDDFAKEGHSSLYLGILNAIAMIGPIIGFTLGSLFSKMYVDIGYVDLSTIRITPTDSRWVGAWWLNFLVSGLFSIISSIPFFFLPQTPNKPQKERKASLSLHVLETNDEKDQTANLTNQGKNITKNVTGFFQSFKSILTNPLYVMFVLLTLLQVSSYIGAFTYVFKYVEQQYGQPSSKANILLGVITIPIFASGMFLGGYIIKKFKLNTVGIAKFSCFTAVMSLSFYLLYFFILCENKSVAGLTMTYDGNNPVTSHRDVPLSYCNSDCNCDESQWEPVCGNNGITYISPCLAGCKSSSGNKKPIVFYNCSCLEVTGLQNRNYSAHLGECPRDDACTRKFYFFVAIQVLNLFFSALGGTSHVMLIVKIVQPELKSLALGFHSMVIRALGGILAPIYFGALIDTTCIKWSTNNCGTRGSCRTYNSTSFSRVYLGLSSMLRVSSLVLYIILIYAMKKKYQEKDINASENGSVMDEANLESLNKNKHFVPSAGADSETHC

[2] = molecular target: T2, OATP2B1 (Homo sapiens, UniProt O94956); conditions: for classification as OATP2B1 inhibitor/stimulator (single-point): 20 μM
T2 sequence (O94956 1-709): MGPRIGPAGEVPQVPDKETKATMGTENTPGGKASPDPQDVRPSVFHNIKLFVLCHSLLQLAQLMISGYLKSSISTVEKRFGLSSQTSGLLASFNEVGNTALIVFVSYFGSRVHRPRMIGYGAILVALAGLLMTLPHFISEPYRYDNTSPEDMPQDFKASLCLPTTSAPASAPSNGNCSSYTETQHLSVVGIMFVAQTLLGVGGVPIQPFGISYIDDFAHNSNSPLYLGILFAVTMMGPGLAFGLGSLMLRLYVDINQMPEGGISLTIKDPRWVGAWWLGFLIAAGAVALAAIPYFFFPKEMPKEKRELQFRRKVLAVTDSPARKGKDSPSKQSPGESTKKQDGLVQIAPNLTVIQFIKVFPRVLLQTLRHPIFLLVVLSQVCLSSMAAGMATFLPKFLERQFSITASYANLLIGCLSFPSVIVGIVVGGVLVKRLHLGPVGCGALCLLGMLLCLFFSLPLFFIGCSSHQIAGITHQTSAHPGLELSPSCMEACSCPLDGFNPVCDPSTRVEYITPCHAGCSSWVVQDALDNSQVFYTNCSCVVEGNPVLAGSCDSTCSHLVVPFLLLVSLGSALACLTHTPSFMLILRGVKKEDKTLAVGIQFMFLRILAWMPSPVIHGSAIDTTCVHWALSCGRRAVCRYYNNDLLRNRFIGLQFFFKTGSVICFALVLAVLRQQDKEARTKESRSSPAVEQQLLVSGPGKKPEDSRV

[3] = molecular target: T3, OATP1B3 (Homo sapiens, UniProt Q9NPD5); conditions: for classification as OATP1B3 inhibitor/stimulator (single-point): 20 μM
T3 sequence (Q9NPD5 1-702): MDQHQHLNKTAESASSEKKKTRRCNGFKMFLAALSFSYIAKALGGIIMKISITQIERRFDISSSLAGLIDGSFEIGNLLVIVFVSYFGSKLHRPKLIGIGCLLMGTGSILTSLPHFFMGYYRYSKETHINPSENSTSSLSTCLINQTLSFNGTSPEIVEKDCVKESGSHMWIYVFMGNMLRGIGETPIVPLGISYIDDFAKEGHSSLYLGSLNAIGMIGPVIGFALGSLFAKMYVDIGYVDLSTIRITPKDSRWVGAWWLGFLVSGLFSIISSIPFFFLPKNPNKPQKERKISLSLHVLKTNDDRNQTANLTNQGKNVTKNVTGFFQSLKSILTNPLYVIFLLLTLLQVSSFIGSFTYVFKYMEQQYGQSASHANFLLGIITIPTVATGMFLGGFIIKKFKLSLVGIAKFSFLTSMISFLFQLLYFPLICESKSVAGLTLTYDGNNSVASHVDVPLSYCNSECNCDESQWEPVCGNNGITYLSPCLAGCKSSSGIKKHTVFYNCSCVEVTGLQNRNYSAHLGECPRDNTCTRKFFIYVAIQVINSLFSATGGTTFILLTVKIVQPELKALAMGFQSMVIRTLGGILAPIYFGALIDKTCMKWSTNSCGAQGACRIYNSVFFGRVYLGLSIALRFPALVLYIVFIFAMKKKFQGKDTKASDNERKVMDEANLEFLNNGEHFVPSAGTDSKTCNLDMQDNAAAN

[4] = tested on: OATP1B1, OATP1B3, and OATP2B1; assay: Classification of specific and general OATP inhibitors; conditions: 20 μM, inhibitor = at least 50% inhibition
[5] = tested on: BCRP; conditions: cited from earlier work
[6] = molecular target: T2, OATP2B1; assay: Transport kinetics of substrate uptake in OATP2B1-HEK293 cells; assay type: cell-based
[7] = OATP2B1 mediated uptake, HEK293

N[C@@H]1C[C@H]1c1ccccc1 (racemic) [Tranylcypromine]
OATP1B1 Inhib % [1]: -9.5%
OATP2B1 Inhib % [2]: 15.5%
OATP1B3 Inhib % [3]: -9.3%

OCCN1CCN(CCC=C2c3ccccc3Sc3ccc(C(F)(F)F)cc32)CC1 [Flupenthixol]
OATP2B1 Inhib % ([2]; human): 9.5%
OATP1B3 Inhib % ([3]; human): 13.5%

CCOc1ccc(-c2nc3cc(-c4nc5cc(N6CCN(C)CC6)ccc5[nH]4)ccc3[nH]2)cc1 [Hoechst 33342]
OATP inhibitor classification based on single-point inhibition assays [4]: OATP1B3, only three specific inhibitors

COc1ccc2c3c([nH]c2c1)[C@H](CC(C)C)N1C(=O)[C@H](CCC(=O)OC(C)(C)C)NC(=O)[C@@H]1C3 [KO143]
concentration that completely inhibits BCRP [5]: 1 µM

CN(C)c1ccc(C=Cc2cc[n+](C)cc2)cc1 [N-methylpyridinium, ASP+]
OATP1B1 Inhib % [1]: 27.9%
OATP2B1 Inhib % [2]: 12.8%
OATP1B3 Inhib % [3]: -2.3%

O=C(O)C(=O)O.[NH-][C@@H]1CCCC[C@H]1[NH-].[Pt+2] [Oxaliplatin]
OATP1B1 Inhib % [1]: 13.0%
OATP2B1 Inhib % [2]: 8.2%
OATP1B3 Inhib % [3]: 9.9%

C[C@@H]1NC(=O)[C@H](C[C@@](C)(O)CO)NC(=O)[C@H]2NC(=O)[C@H](C)NC(=O)[C@@H]3C[C@H](O)CN3C(=O)[C@@H](CSc3[nH]c4ccccc4c32)NC(=O)[C@H]([C@@H](C)O)NC1=O [Phalloidin] (cyclo(AT[dC][cisHyp]A[X1][Leu(4R-OH,5-OH)]); thioether 3-6)
OATP2B1 Inhib % ([2]; human): 24.1%
OATP1B3 Inhib % ([3]; human): 36.2%

COC(=O)N[C@H](C(=O)N[C@@H](Cc1ccccc1)[C@@H](O)CN(Cc1ccc(-c2ccccn2)cc1)NC(=O)[C@@H](NC(=O)OC)C(C)(C)C)C(C)(C)C [atazanavir, Atazanavir]
OATP inhibitor classification based on single-point inhibition assays [4]: general OATP inhibitors

Clc1ccccc1C(c1ccccc1)(c1ccccc1)n1ccnc1 [clotrimazole, Clotrimazole]
classification as OATP1B3 inhibitor/stimulator (single-point) [3]: stimulator

COc1cccc2c1C(=O)c1c(O)c3c(c(O)c1C2=O)C[C@@](O)(C(=O)CO)C[C@@H]3O[C@H]1C[C@H](N)[C@H](O)[C@H](C)O1 [doxorubicin, Doxorubicin]
OATP inhibitor classification based on single-point inhibition assays [4]: specific inhibitors of one of the OATP transporters

C#Cc1cccc(Nc2ncnc3cc(OCCOC)c(OCCOC)cc23)c1 [erlotinib, Erlotinib]
OATP inhibitor classification based on single-point inhibition assays [4]: specific inhibitors of one of the OATP transporters

C[C@]12CC[C@@H]3c4ccc(OS(=O)(=O)O)cc4CC[C@H]3[C@@H]1CCC2=O [estrone-3-sulfate]
Km [6, 7]: 38.2 ± 10.2 µM
Vmax [6, 7]: 455.2 ± 55.36 pmol/mg protein/min
mean uptake of model substrate in OATP2B1 expressing HEK293 cells compared to passive uptake in mock-transfected cells ([6]; n = 51 experiments): 44 times

CC(NCCC(c1ccccc1)c1ccccc1)c1ccccc1 (stereo not drawn) [fendiline, Fendiline]
classification as OATP2B1 inhibitor/stimulator (single-point) [2]: stimulate

COc1ccc2c(c1)c(CC(=O)O)c(C)n2C(=O)c1ccc(Cl)cc1 [indometacin, Indomethacin]
OATP inhibitor classification based on single-point inhibition assays [4]: specific inhibitors of one of the OATP transporters

CC[C@H](C)C(=O)O[C@H]1C[C@@H](C)C=C2C=C[C@H](C)[C@H](CC[C@@H](O)C[C@@H](O)CC(=O)O)[C@H]21 [lovastatin acid]
OATP inhibitor classification based on single-point inhibition assays [4]: specific OATP1B1 inhibitors

O=C1c2c(O)ccc(O)c2C(=O)c2c(NCCNCCO)ccc(NCCNCCO)c21 [mitoxantrone, Mitoxantrone]
OATP inhibitor classification based on single-point inhibition assays [4]: OATP1B3, only three specific inhibitors

CCc1nn(CCCN2CCN(c3cccc(Cl)c3)CC2)c(=O)n1CCOc1ccccc1 [nefazodone, Nefazodone]
classification as OATP1B1 inhibitor/stimulator (single-point) ([1]; 20 μM): not interacting
classification as OATP2B1 inhibitor/stimulator (single-point) [2]: inhibitor
classification as OATP1B3 inhibitor/stimulator (single-point) [3]: inhibitor

C[C@@H]1[C@H](O)[C@@H](C)/C=C/C=C/CC/C=C/C=C/C=C/C=C/C(O[C@H]2O[C@H](C)[C@@H](O)[C@H](N)[C@@H]2O)CC2O[C@](O)(CC(O)C(O)CCC(O)CC(O)CC(O)CC(=O)O[C@H]1C)CC(O)C2C(=O)O (stereo partly drawn) [nystatin, Nystatin]
OATP2B1 Inhib % [2]: 23.4%
OATP1B3 Inhib % [3]: 74.9%

CC[C@H](C)C(=O)O[C@H]1C[C@H](O)C=C2C=C[C@H](C)[C@H](CC[C@@H](O)C[C@@H](O)CC(=O)O)[C@H]21 [pravastatin, Pravastatin]
OATP inhibitor classification based on single-point inhibition assays [4]: specific inhibitors of one of the OATP transporters
OATP inhibitor classification based on single-point inhibition assays ([4]; listed as pravastatin acid): specific OATP1B1 inhibitors

CC(=O)[C@H]1CC[C@H]2[C@@H]3CCC4=CC(=O)CC[C@]4(C)[C@H]3CC[C@]12C [progesterone, Progesterone]
classification as OATP2B1 inhibitor/stimulator (single-point) [2]: stimulate

CCC(C)(C)C(=O)O[C@H]1C[C@@H](C)C=C2C=C[C@H](C)[C@H](CC[C@@H](O)C[C@@H](O)CC(=O)O)[C@H]21 [simvastatin acid]
OATP inhibitor classification based on single-point inhibition assays [4]: specific OATP1B1 inhibitors

O=C(O)c1cc(/N=N/c2ccc(S(=O)(=O)Nc3ccccn3)cc2)ccc1O [sulfasalazine, Sulfasalazine]
OATP inhibitor classification based on single-point inhibition assays [4]: general OATP inhibitors

C[C@]12CC[C@H]3[C@@H](CCC4=CC(=O)CC[C@@]43C)[C@@H]1CC[C@@H]2O [testosterone, Testosterone]
classification as OATP2B1 inhibitor/stimulator (single-point) [2]: stimulate

CC[C@]1(O)C[C@H]2CN(CCc3c([nH]c4ccccc34)[C@@](C(=O)OC)(c3cc4c(cc3OC)N(C=O)[C@H]3[C@@](O)(C(=O)OC)[C@H](OC(C)=O)[C@]5(CC)C=CCN6CC[C@]43[C@@H]65)C2)C1 [vincristine, Vincristine]
OATP inhibitor classification based on single-point inhibition assays [4]: specific inhibitors of one of the OATP transporters; also recorded: OATP1B3, only three specific inhibitors
OATP inhibitor classification based on single-point inhibition assays ([4]; listed as Vincristine): specific inhibitor of OATP1B3

Olmesartan
OATP2B1 Inhib % [2]: -7.9%

cholecystokinin octapeptide [cholecystokinin octapeptide (CCK-8)]
OATP2B1 Inhib % [2]: 60.1%
OATP1B3 Inhib % [3]: 96.9%
